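Exposure lasted 48 hours, with cells grown in 96-well plates and compounds tested at five concentrations. At the GI50, growth is halved.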 Activity calls are given as the source filed them. No stated cut-off is given here; in the data, active = GI50 up to about 1.1 µM and inactive = higher.
How the values were obtained:
Assay in all cases: DTP human tumour cell line panel, 48 h
786-0 = test system: 786-0
A498 = test system: A498
A549 = test system: A549
ACHN = test system: ACHN
BT-549 = test system: BT-549
CAKI-1 = test system: CAKI-1
CCRF-CEM = test system: CCRF-CEM
COLO 205 = test system: COLO 205
EKVX = test system: EKVX
HCC 2998 = test system: HCC 2998
HCT-116 = test system: HCT-116
HCT-15 = test system: HCT-15
HOP-62 = test system: HOP-62
HOP-92 = test system: HOP-92
HT-29 = test system: HT-29
Hs-578T = test system: Hs-578T
IGROV-1 = test system: IGROV-1
K562 = test system: K562
KM12 = test system: KM12
LOX IMVI = test system: LOX IMVI
M14 = test system: M14
MCF7 = test system: MCF7
MDA-MB-231 = test system: MDA-MB-231
MDA-MB-435 = test system: MDA-MB-435
MDA-N = test system: MDA-N
MOLT-4 = test system: MOLT-4
Malme-3M = test system: Malme-3M
NCI-H226 = test system: NCI-H226
NCI-H460 = test system: NCI-H460
NCI-H522 = test system: NCI-H522
NCI/ADR-RES = test system: NCI/ADR-RES
OVCAR-4 = test system: OVCAR-4
OVCAR-5 = test system: OVCAR-5
OVCAR-8 = test system: OVCAR-8
PC-3 = test system: PC-3
RXF 393 = test system: RXF 393
SF-268 = test system: SF-268
SF-295 = test system: SF-295
SF-539 = test system: SF-539
SK-MEL-28 = test system: SK-MEL-28
SK-MEL-2 = test system: SK-MEL-2
SK-MEL-5 = test system: SK-MEL-5
SK-OV-3 = test system: SK-OV-3
SN12C = test system: SN12C
SNB-19 = test system: SNB-19
SNB-75 = test system: SNB-75
SW-620 = test system: SW-620
TK-10 = test system: TK-10
U-251 = test system: U-251
UACC-257 = test system: UACC-257
UACC-62 = test system: UACC-62
DU-145 = test system: DU-145
HL-60 = test system: HL-60
NCI-H23 = test system: NCI-H23
OVCAR-3 = test system: OVCAR-3
RPMI-8226 = test system: RPMI-8226
SR = test system: SR
UO-31 = test system: UO-31

How did the GI50 (786-0) turn out when COc1cccc(NC(=O)C(C#N)=C(SC)SC)c1 was run?
Its GI50 is > 100 µM (inactive).

What about the GI50 (A498) of the same compound?
The GI50 was > 100 µM (inactive).

What about the GI50 (A549) of the same compound?
The GI50 was > 100 µM (inactive).

What about the GI50 (ACHN) of the same compound?
Its GI50 is > 100 µM (inactive).

What about the GI50 (BT-549) of the same compound?
The GI50 was > 100 µM (inactive).

What about the GI50 (CAKI-1) of the same compound?
The GI50 was 95.1 µM (inactive).

What about the GI50 (CCRF-CEM) of the same compound?
Its GI50 is 34 µM (inactive).

What about the GI50 (COLO 205) of the same compound?
The GI50 was > 100 µM (inactive).

And the GI50 (EKVX)?
Its GI50 is > 100 µM (inactive).

And the GI50 (HCC 2998)?
Its GI50 is > 100 µM (inactive).

What about the GI50 (HCT-116) of the same compound?
The GI50 was > 100 µM (inactive).

What about the GI50 (HCT-15) of the same compound?
Its GI50 is greater than 100 µM.

What about the GI50 (HOP-62) of the same compound?
Its GI50 is > 100 µM (inactive).

What about the GI50 (HOP-92) of the same compound?
Its GI50 is 46 µM (inactive).

And the GI50 (HT-29)?
The GI50 was > 100 µM (inactive).

What about the GI50 (Hs-578T) of the same compound?
The GI50 was > 100 µM (inactive).

And the GI50 (IGROV-1)?
Its GI50 is > 100 µM (inactive).

And the GI50 (K562)?
The GI50 was > 100 µM (inactive).

And the GI50 (KM12)?
Its GI50 is > 100 µM (inactive).

What about the GI50 (LOX IMVI) of the same compound?
Its GI50 is > 100 µM (inactive).

And the GI50 (M14)?
The GI50 was > 100 µM (inactive).

What about the GI50 (MCF7) of the same compound?
The GI50 was 72.9 µM (inactive).

What about the GI50 (MDA-MB-231) of the same compound?
Its GI50 is > 100 µM (inactive).

And the GI50 (MDA-MB-435)?
The GI50 was > 100 µM (inactive).

And the GI50 (MDA-N)?
The GI50 was > 100 µM (inactive).

What about the GI50 (MOLT-4) of the same compound?
Its GI50 is 62.2 µM (inactive).

And the GI50 (Malme-3M)?
Its GI50 is > 100 µM (inactive).

What about the GI50 (NCI-H226) of the same compound?
The GI50 was > 100 µM (inactive).

And the GI50 (NCI-H460)?
The GI50 was > 100 µM (inactive).

And the GI50 (NCI-H522)?
Its GI50 is 30.4 µM (inactive).

What about the GI50 (NCI/ADR-RES) of the same compound?
The GI50 was > 100 µM (inactive).

What about the GI50 (OVCAR-4) of the same compound?
Its GI50 is > 100 µM (inactive).

What about the GI50 (OVCAR-5) of the same compound?
Its GI50 is > 100 µM (inactive).

What about the GI50 (OVCAR-8) of the same compound?
The GI50 was > 100 µM (inactive).

What about the GI50 (PC-3) of the same compound?
The GI50 was > 100 µM (inactive).

And the GI50 (RXF 393)?
Its GI50 is > 100 µM (inactive).

And the GI50 (SF-268)?
The GI50 was > 100 µM (inactive).

And the GI50 (SF-295)?
Its GI50 is > 100 µM (inactive).

And the GI50 (SF-539)?
The GI50 was > 100 µM (inactive).

And the GI50 (SK-MEL-28)?
Its GI50 is > 100 µM (inactive).

What about the GI50 (SK-MEL-2) of the same compound?
The GI50 was > 100 µM (inactive).

And the GI50 (SK-MEL-5)?
Its GI50 is 41.8 µM (inactive).

What about the GI50 (SK-OV-3) of the same compound?
The GI50 was > 100 µM (inactive).

What about the GI50 (SN12C) of the same compound?
The GI50 was > 100 µM (inactive).

And the GI50 (SNB-19)?
The GI50 was 57 µM (inactive).

And the GI50 (SNB-75)?
The GI50 was > 100 µM (inactive).

What about the GI50 (SW-620) of the same compound?
Its GI50 is > 100 µM (inactive).

And the GI50 (TK-10)?
Its GI50 is > 100 µM (inactive).

What about the GI50 (U-251) of the same compound?
Its GI50 is > 100 µM (inactive).

What about the GI50 (UACC-257) of the same compound?
The GI50 was > 100 µM (inactive).

What about the GI50 (UACC-62) of the same compound?
Its GI50 is > 100 µM (inactive).

Which GI50 (786-0) does the source give for O=C1CN(c2cccc(Cl)c2)C(=O)CN1CCN1CC(=O)N(c2cccc(Cl)c2)CC1=O here?
The GI50 was > 100 µM (inactive).

What about the GI50 (A498) of the same compound?
Its GI50 is > 100 µM (inactive).

And the GI50 (A549)?
Its GI50 is > 100 µM (inactive).

What about the GI50 (ACHN) of the same compound?
Its GI50 is > 100 µM (inactive).

And the GI50 (BT-549)?
The GI50 was > 100 µM (inactive).

And the GI50 (CAKI-1)?
The GI50 was > 100 µM (inactive).

What about the GI50 (CCRF-CEM) of the same compound?
The GI50 was > 100 µM (inactive).

And the GI50 (COLO 205)?
The GI50 was > 100 µM (inactive).

And the GI50 (DU-145)?
The GI50 was > 100 µM (inactive).

What about the GI50 (EKVX) of the same compound?
The GI50 was > 100 µM (inactive).

What about the GI50 (HCC 2998) of the same compound?
Its GI50 is > 100 µM (inactive).

What about the GI50 (HCT-116) of the same compound?
Its GI50 is > 100 µM (inactive).

And the GI50 (HCT-15)?
The GI50 was greater than 100 µM.

And the GI50 (HL-60)?
Its GI50 is > 100 µM (inactive).

And the GI50 (HOP-62)?
Its GI50 is > 100 µM (inactive).

What about the GI50 (HOP-92) of the same compound?
Its GI50 is > 100 µM (inactive).

What about the GI50 (HT-29) of the same compound?
The GI50 was > 100 µM (inactive).

What about the GI50 (Hs-578T) of the same compound?
The GI50 was > 100 µM (inactive).

What about the GI50 (IGROV-1) of the same compound?
The GI50 was > 100 µM (inactive).

What about the GI50 (KM12) of the same compound?
The GI50 was > 100 µM (inactive).

What about the GI50 (M14) of the same compound?
The GI50 was > 100 µM (inactive).

And the GI50 (MCF7)?
Its GI50 is > 100 µM (inactive).

And the GI50 (MDA-MB-435)?
Its GI50 is > 100 µM (inactive).

And the GI50 (MDA-N)?
Its GI50 is > 100 µM (inactive).

What about the GI50 (MOLT-4) of the same compound?
The GI50 was > 100 µM (inactive).

What about the GI50 (Malme-3M) of the same compound?
Its GI50 is > 100 µM (inactive).

And the GI50 (NCI-H23)?
Its GI50 is 26.4 µM (inactive).

And the GI50 (NCI-H460)?
The GI50 was > 100 µM (inactive).

What about the GI50 (NCI-H522) of the same compound?
The GI50 was > 100 µM (inactive).

And the GI50 (OVCAR-3)?
The GI50 was > 100 µM (inactive).

And the GI50 (OVCAR-4)?
Its GI50 is > 100 µM (inactive).

What about the GI50 (OVCAR-5) of the same compound?
Its GI50 is > 100 µM (inactive).

And the GI50 (OVCAR-8)?
Its GI50 is > 100 µM (inactive).

What about the GI50 (PC-3) of the same compound?
Its GI50 is > 100 µM (inactive).

What about the GI50 (RPMI-8226) of the same compound?
The GI50 was > 100 µM (inactive).

And the GI50 (RXF 393)?
The GI50 was > 100 µM (inactive).

What about the GI50 (SF-268) of the same compound?
Its GI50 is > 100 µM (inactive).

And the GI50 (SF-295)?
The GI50 was > 100 µM (inactive).

And the GI50 (SF-539)?
Its GI50 is > 100 µM (inactive).

What about the GI50 (SK-MEL-28) of the same compound?
Its GI50 is > 100 µM (inactive).

What about the GI50 (SK-MEL-5) of the same compound?
The GI50 was > 100 µM (inactive).

And the GI50 (SK-OV-3)?
The GI50 was > 100 µM (inactive).

What about the GI50 (SN12C) of the same compound?
The GI50 was > 100 µM (inactive).

And the GI50 (SNB-19)?
Its GI50 is > 100 µM (inactive).

And the GI50 (SNB-75)?
Its GI50 is > 100 µM (inactive).

And the GI50 (SR)?
The GI50 was > 100 µM (inactive).

What about the GI50 (SW-620) of the same compound?
Its GI50 is > 100 µM (inactive).

What about the GI50 (TK-10) of the same compound?
Its GI50 is > 100 µM (inactive).

And the GI50 (U-251)?
Its GI50 is > 100 µM (inactive).

What about the GI50 (UACC-257) of the same compound?
Its GI50 is > 100 µM (inactive).

What about the GI50 (UACC-62) of the same compound?
The GI50 was > 100 µM (inactive).

And the GI50 (UO-31)?
Its GI50 is > 100 µM (inactive).

— ChEMBL document CHEMBL1201862, “PubChem BioAssay data set” (2004)
